Values of other authors, collected in US8221746B2, “Antioxidant for use in cosmetic, medicated and pharmaceutical preparations” (priority 2008, dated 2012).

Legend:
photoaging of the face = details: topical, 12 weeks, vs placebo gel
[1] = tested on: photodamage of facial skin; details: topical, 3 months

O=C1O[C@H]([C@@H](O)CO)C(O)=C1O [vitamin C]
clinical improvement in wrinkling (in words) (photoaging of the face): clinically visible and statistically significant improvement in wrinkling
patient questionnaire overall improvement greater than control [1]: 84.2%
photographic assessment improvement greater than the improvement in the control group [1]: 57.9%
combined score improvement, optical image analysis of skin surface ([1]; compared to placebo-vehicle side of face): 71%
